Reference: publication PMC8772704, “Quantification of Fosfomycin in Combination with Nine Antibiotics in Human Plasma and Cation-Adjusted Mueller-Hinton II Broth via LCMS” (Antibiotics, 2022)

How the values were obtained:
[1] = Long-term storage stability of antibiotics in combination with fosfomycin spiked in plasma/CAMHB (−30 °C, −80 °C); assay type: physicochemical; conditions: for Mean accuracy (%), Table S15 / Mean accuracy (%), Table S17 / Mean accuracy (%), Table S16 / Mean accuracy (%), Table S18: CAMHB; for Mean accuracy (%), Table S15 / Mean accuracy (%), Table S17 / Mean accuracy (%), Table S16 / Mean accuracy (%), Table S18 / Mean accuracy (%), Table S11 / Mean accuracy (%), Table S13 / Mean accuracy (%), Table S12 / Mean accuracy (%), Table S14: combination with fosfomycin; for Mean accuracy (%), Table S15 / Mean accuracy (%), Table S11: 2 weeks at -30 °C; for Mean accuracy (%), Table S17 / Mean accuracy (%), Table S13: 2 weeks at -80 °C; for Mean accuracy (%), Table S16 / Mean accuracy (%), Table S12: 4 weeks at -30 °C; for Mean accuracy (%), Table S18 / Mean accuracy (%), Table S14: 4 weeks at -80 °C; for Mean accuracy (%), Table S11 / Mean accuracy (%), Table S13 / Mean accuracy (%), Table S12 / Mean accuracy (%), Table S14: plasma
Method: (§1) The stability of fosfomycin in combination with other antibiotics in plasma/CAMHB was evaluated under various operational conditions. Spiked plasma/CAMHB samples were evaluated at 7 h and 15 h in the autosampler at 4 °C. Long-term stability was evaluated up to 4 weeks of antibiotic-spiked plasma/CAMHB samples at LQC, MQC, and HQC concentrations stored at −30 °C and −80 °C.

[2] = 32-day stability of stock solutions stored at −80 °C; assay type: physicochemical; conditions: stock solution stored at -80 °C; peak area Day 32 vs Day 1
Method: Stability of stock solutions
All stock solutions of antibiotics and their corresponding stable-isotope variants were measured prior to cold storage at -80 °C and tested at 32 days later.
Stability was determined by comparing the peak area of each drug between its Day 1 and Day 32 measurement. Acceptable criteria for stability was met if the […]

[3] = Autosampler stability at 4 °C of extracted antibiotic-spiked plasma/CAMHB samples; conditions: for Mean accuracy (%), Table S8 / Mean accuracy (%), Table S10: CAMHB extracted samples; for Mean accuracy (%), Table S8 / Mean accuracy (%), Table S7: 7 h autosampler 4 °C; for Mean accuracy (%), Table S10 / Mean accuracy (%), Table S9: 15 h autosampler 4 °C; for Mean accuracy (%), Table S7 / Mean accuracy (%), Table S9: plasma extracted samples
Method: as §1

[4] = HQC: nominal mg/L CAZ 150, FEP 200, PIP 250, ATM 300, MEM 200, DOR 175, LVX 30, CEFT 250, TZB 87.5, TGC 20, AVI 30, FOF 1000
[5] = LQC: nominal 1 mg/L (levofloxacin, avibactam 0.5; fosfomycin 10)
[6] = MQC: nominal mg/L CAZ 75, FEP 100, PIP 150, ATM 150, MEM 100, DOR 87.5, LVX 15, CEFT 125, TZB 43.75, TGC 10, AVI 15, FOF 500

Row | Mean accuracy (%), Table S15 ([1]; HQC (nominal as E15)) [%] | Mean accuracy (%), Table S15 ([1]; LQC (nominal as E13)) [%] | Mean accuracy (%), Table S15 ([1]; MQC (nominal as E14)) [%] | Mean accuracy (%), Table S17 ([1]; HQC (nominal as E15)) [%] | Mean accuracy (%), Table S17 ([1]; LQC (nominal as E13)) [%] | Mean accuracy (%), Table S17 ([1]; MQC (nominal as E14)) [%] | Mean accuracy (%), Table S16 ([1]; HQC (nominal as E15)) [%] | 32 Day Stability (%) [2] [%] | Mean accuracy (%), Table S8 ([3]; HQC (nominal as E15)) [%] | Mean accuracy (%), Table S8 ([3]; LQC (nominal as E13)) [%] | Mean accuracy (%), Table S8 ([3]; MQC (nominal as E14)) [%] | Mean accuracy (%), Table S10 ([3]; HQC (nominal as E15)) [%] | Mean accuracy (%), Table S10 ([3]; LQC (nominal as E13)) [%] | Mean accuracy (%), Table S10 ([3]; MQC (nominal as E14)) [%] | Mean accuracy (%), Table S7 [3, 4] [%] | Mean accuracy (%), Table S7 [3, 5] [%] | Mean accuracy (%), Table S7 [3, 6] [%] | Mean accuracy (%), Table S9 ([3]; HQC (nominal as E15)) [%] | Mean accuracy (%), Table S9 ([3]; LQC (nominal as E13)) [%] | Mean accuracy (%), Table S9 ([3]; MQC (nominal as E14)) [%] | other results | SMILES
1 | 90.4 | 93.7 | 89.1 | 95.3 | 101.2 | 95.4 | 80.6 | 102.63 | 106.4 | 108.8 | 104.2 | 107.5 | 108.3 | 104.9 | 96.2 | 105.4 | 100.7 | 95.6 | 103.4 | 99.3 | Stability verdict (within ±15% of nominal) ([1]; CAMHB samples stored at −30 °C, 4 weeks): instability; Mean accuracy (%), Table S16 ([1]; LQC (nominal as E13)): 82.3%; Mean accuracy (%), Table S16 ([1]; MQC (nominal as E14)): 80.6%; Mean accuracy (%), Table S18 ([1]; HQC (nominal as E15)): 98.6%; Mean accuracy (%), Table S18 ([1]; LQC (nominal as E13)): 103.0%; Mean accuracy (%), Table S18 ([1]; MQC (nominal as E14)): 98.2%; Mean accuracy (%), Table S11 ([1]; HQC (nominal as E15)): 93.9%; Mean accuracy (%), Table S11 ([1]; LQC (nominal as E13)): 100.6%; Mean accuracy (%), Table S11 ([1]; MQC (nominal as E14)): 99.4%; Mean accuracy (%), Table S13 ([1]; HQC (nominal as E15)): 95.2%; Mean accuracy (%), Table S13 ([1]; LQC (nominal as E13)): 105.1%; Mean accuracy (%), Table S13 ([1]; MQC (nominal as E14)): 100.4%; Mean accuracy (%), Table S12 ([1]; HQC (nominal as E15)): 87.3%; Mean accuracy (%), Table S12 ([1]; LQC (nominal as E13)): 100.2%; Mean accuracy (%), Table S12 ([1]; MQC (nominal as E14)): 92.6%; Mean accuracy (%), Table S14 ([1]; HQC (nominal as E15)): 92.9%; Mean accuracy (%), Table S14 ([1]; LQC (nominal as E13)): 101.0%; Mean accuracy (%), Table S14 ([1]; MQC (nominal as E14)): 94.5% | NC(=O)[C@@H]1CC[C@@H]2CN1C(=O)N2OS(=O)(=O)O [Avibactam, avibactam]
2 | 97.6 | 99.2 | 106.0 | 103.0 | 104.3 | 105.2 | 100.5 | 101.73 | 109.2 | 110.0 | 109.0 | 112.0 | 107.7 | 111.0 | 109.6 | 94.9 | 112.0 | 113.1 | 93.8 | 111.5 | Mean accuracy (%), Table S16 ([1]; LQC (nominal as E13)): 105.0%; Mean accuracy (%), Table S16 ([1]; MQC (nominal as E14)): 100.4%; Mean accuracy (%), Table S18 ([1]; HQC (nominal as E15)): 103.8%; Mean accuracy (%), Table S18 ([1]; LQC (nominal as E13)): 103.5%; Mean accuracy (%), Table S18 ([1]; MQC (nominal as E14)): 106.4%; Mean accuracy (%), Table S11 ([1]; HQC (nominal as E15)): 99.5%; Mean accuracy (%), Table S11 ([1]; LQC (nominal as E13)): 97.8%; Mean accuracy (%), Table S11 ([1]; MQC (nominal as E14)): 105.0%; Mean accuracy (%), Table S13 ([1]; HQC (nominal as E15)): 99.4%; Mean accuracy (%), Table S13 ([1]; LQC (nominal as E13)): 102.6%; Mean accuracy (%), Table S13 ([1]; MQC (nominal as E14)): 101.0%; Mean accuracy (%), Table S12 ([1]; HQC (nominal as E15)): 100.3%; Mean accuracy (%), Table S12 ([1]; LQC (nominal as E13)): 100.3%; Mean accuracy (%), Table S12 ([1]; MQC (nominal as E14)): 105.0%; Mean accuracy (%), Table S14 ([1]; HQC (nominal as E15)): 107.7%; Mean accuracy (%), Table S14 ([1]; LQC (nominal as E13)): 98.8%; Mean accuracy (%), Table S14 ([1]; MQC (nominal as E14)): 103.0% | CC(C)(O/N=C(\C(=O)N[C@@H]1C(=O)N2C(C(=O)[O-])=C(C[n+]3ccccc3)CS[C@H]12)c1csc(N)n1)C(=O)O [Ceftazidime, ceftazidime]
3 | 93.2 | 91.3 | 94.7 | 94.1 | 91.4 | 94.3 | 90.8 | 107.69 | 113.3 | 106.4 | 109.8 | 112.0 | 107.2 | 111.3 | 105.1 | 106.0 | 97.2 | 101.0 | 97.5 | 90.0 | Mean accuracy (%), Table S16 ([1]; LQC (nominal as E13)): 86.1%; Mean accuracy (%), Table S16 ([1]; MQC (nominal as E14)): 90.4%; Mean accuracy (%), Table S18 ([1]; HQC (nominal as E15)): 93.9%; Mean accuracy (%), Table S18 ([1]; LQC (nominal as E13)): 87.5%; Mean accuracy (%), Table S18 ([1]; MQC (nominal as E14)): 96.2%; Mean accuracy (%), Table S11 ([1]; HQC (nominal as E15)): 86.5%; Mean accuracy (%), Table S11 ([1]; LQC (nominal as E13)): 86.9%; Mean accuracy (%), Table S11 ([1]; MQC (nominal as E14)): 86.4%; Mean accuracy (%), Table S13 ([1]; HQC (nominal as E15)): 86.3%; Mean accuracy (%), Table S13 ([1]; LQC (nominal as E13)): 91.1%; Mean accuracy (%), Table S13 ([1]; MQC (nominal as E14)): 87.7%; Mean accuracy (%), Table S12 ([1]; HQC (nominal as E15)): 99.3%; Mean accuracy (%), Table S12 ([1]; LQC (nominal as E13)): 99.0%; Mean accuracy (%), Table S12 ([1]; MQC (nominal as E14)): 98.6%; Mean accuracy (%), Table S14 ([1]; HQC (nominal as E15)): 100.8%; Mean accuracy (%), Table S14 ([1]; LQC (nominal as E13)): 89.3%; Mean accuracy (%), Table S14 ([1]; MQC (nominal as E14)): 98.0% | Cn1c(N)c(NC(=O)NCCN)c[n+]1CC1=C(C(=O)O)N2C(=O)[C@@H](NC(=O)/C(=N\OC(C)(C)C(=O)[O-])c3nsc(N)n3)[C@H]2SC1 [Ceftolozane, ceftolozane]
4 | – | – | – | – | – | – | – | 98.42 | 98.8 | 113.0 | 103.4 | 99.5 | 112.8 | 103.9 | 101.3 | 110.7 | 105.2 | 103.6 | 114.0 | 106.1 | – | C[C@H]1COc2c(N3CCN(C)CC3)c(F)cc3c(=O)c(C(=O)O)cn1c23 [Levofloxacin, levofloxacin]
